Entries after “also recorded” stand apart in the source; their conditions may differ. Like-named read-outs stand apart in the source and are kept apart here.
Key:
[1] = tested on: r(CGG)12-DGCR8Δ complex; experiment: TR-FRET protein displacement assay; assay type: biochemical; conditions: for Percentage displacement at 25 μM: 25 μM compound, DGCR8Δ displaced from r(CGG)12; for inhibition of the r(CGG)12-DGCR8Δ interaction, in words: comparison within the tested compounds
[2] = target: RNA containing one 5′CGG/3′GGC motif; experiment: RNA-binding assay via Hoechst 33258 dye displacement; conditions: RNA with one 5′CGG/3′GGC motif; Table 1
Experimental: Dissociation constants were determined using an in-solution, fluorescence-based assay (37-45). RNA was annealed in DNA buffer (8 mM Na2HPO4, pH7.0, 185 mM NaCl, 0.1 mM EDTA, 40 μg/mL BSA) at 60° C. for 5 min and allowed to slowly cool to room temperature. The annealed RNA was then titrated into DNA buffer containing 1000 nM Hoechst 33258. Fluorescence signal was recorded using a Bio-Tek FLX-800 plate reader, which was equipped with excitation filter at 360/40 nm and emission filter at 460/40 nm. The change in fluorescence intensity as a function of RNA concentration was fit to the following equation (eq. 3): (37, 46) I=I0+0.5Δϵ{([Ht0]+[RNA]0+Kt)−(([Ht]0+[RNA]0+Kt)^2−4[Ht]0[RNA]0)^0.5} (eq. 3) where I is the observed fluorescence intensity, I0 is the fluorescence intensity in the absence of RNA, Δϵ is the difference between the fluorescence intensity in the absence of RNA and in the presence of infinite RNA concentration and is in units of M^−1. […]
Ligands 1a-1d were then added to compete for binding to the RNA (1 μM) in presence of Hoechst 33258 (1 μM). Reduction in fluorescence of Hoechst 33258 was measured using a Bio-Tek FLX-800 plate reader as a function of ligand concentration (1a-1d) and was fit to the following equation (eq. 4): (41) […]

[3] = tested on: DGCR8Δ; experiment: Competition dialysis; assay type: binding; conditions: 0.7 μM ligand, 2 μM protein
Experimental: (§1) Competition dialysis was completed as previously described (31). Briefly, 2 μM RNA or protein was transferred into Slide-a-Lyzer MINI dialysis units with a molecular weight cut-off of 2,000 (Thermo Scientific), and the units were placed into a solution of 0.7 μM ligand. Two blank units containing only buffer were used to monitor equilibration by checking the absorbance at the peak wavelength. After the blank units reached equilibrium, sodium dodecyl sulfate (SDS) was added to a final concentration of 1%, and the absorbance was measured. This absorbance was used to determine total ligand concentration (Ct). The concentration of the dialysate (free ligand concentration. Cf) was determined analogously. The bound ligand concentration (Cb) was then determined using equation 2: Cb=Ct−Cf (eq. 2) where Cb, Ct, and Cf are concentrations of bound, total, and free ligand, respectively. RNA-Binding Assays Via Dye Displacement.

[4] = tested on: fully paired RNAs; experiment: Competition dialysis; assay type: binding; conditions: 0.7 μM ligand, 2 μM RNA
Experimental: as §1

[5] = tested on: r(CGG)12; experiment: Competition dialysis; assay type: binding; conditions: 0.7 μM ligand, 2 μM RNA
Experimental: as §1

[6] = tested on: SMN2 exon 7 alternative splicing; experiment: SMN2 mini-gene splicing in COS7 cells (FXTAS model), RT-PCR; assay type: cell-based; conditions: for SMN2 pre-mRNA splicing defects, in words: figure legends
From the text: Encouraged by our TR-FRET assay results, we tested the bioactivity of the optimal dimeric small molecule, 2E-5NMe, by using a FXTAS cellular model. In the FXTAS cell model, r(CGG)^exp binds and sequesters Sam68, a pre-mRNA splicing regulator. Sequestration of Sam68 causes its inactivation and dysregulation of alternative pre-mRNA splicing. In particular, the alternative splicing of exon 7 of the survival motor neuron-2 pre-mRNA (SMN2; involved in maintenance of motor neurons and mRNA processing) is dysregulated. Exon 7 is included too frequently when r(CGG)^exp is expressed, ˜70% of time as compared to normal cells in which exon 7 has an inclusion rate of only ˜40% (FIG. 14). Experiments were completed as previously described. Briefly. COS7 cells were co-transfected with plasmids expressing an SMN2 alternative splicing reporter and r(CGG)60. The transfection cocktail was removed, and the cells were incubated with fresh medium containing serially diluted concentrations of compound for 24 h. Total RNA was harvested, and splicing patterns were analyzed via RT-PCR. Remarkably, at […] concentration, 2E-5NMe restores alternative pre-mRNA splicing patterns back to the wild type. The monomer 1a required 10 times higher concentration for the same effect.
(§2) In order to determine if a improves FXTAS-associated splicing defects in vivo, a cell culture model system was used. Briefly. COS7 cells were grown as monolayers in 24- or 96-well plates in growth medium (1×DMEM, 10% FBS, and 1× GlutaMax (Invitrogen)). After the cells reached 90-95% confluency, they were transfected using Lipofectamine 2000 reagent (Invitrogen) or PugenHD (Roche) per the manufacturer's standard protocol. Equal amounts of a plasmid expressing a 60 CGG repeats and a mini-gene of interest (SMN2 or Bcl-x) were used. Approximately 5 h post-transfection, the transfection cocktail was removed and replaced with growth medium containing 1a. After 16-24 h, the cells were lysed in the plate, and total RNA was harvested with a Qiagen RNAEasy kit or a GenElute kit (Sigma). An on-column DNA digestion was completed per the manufacturer's recommended protocol.
(§3) A sample of RNA was subjected to reverse transcription-polymerase chain reaction (RT-PCR) using 5 units of AMV Reverse Transcriptase from Life Sciences or Superscript II (Invitrogen). Approximately 300 ng were reverse transcribed, and 150 ng were subjected to PCR. RT-PCR products were observed after 25-30 cycles of: 95° C. for 1 min: 55° C. for 1 min; 72° C. for 2 min and a final extension at 72° C. for 10 min. The products were separated by polyacrylamide or agarose gel electrophoresis, stained, and imaged using a Typhoon phosphorimager. The splicing isoforms were quantified using QuantityOne software (BioRad). Table S-2 lists the RT-PCR primers used for each mini-gene construct.

[7] = tested on: Bcl-x exon 2 alternative splicing; experiment: Bcl-x mini-gene splicing in COS7 cells (FXTAS model), RT-PCR; assay type: cell-based; conditions: for Bcl-x splicing: COS7 cells expressing r(CGG)60
Experimental: as §2, §3

[8] = tested on: PLEKHH2 alternative splicing; experiment: PLEKHH2 mini-gene control splicing in COS7 cells; assay type: cell-based; conditions: for effect on PLEKHH2 splicing: no concentration stated, not regulated by Sam68
From the text: (§4) Control experiments were also completed to determine the specificity of 1a; that is if it affects the splicing of RNAs not controlled by Sam68. In these experiments, a PLEKHH2 (15) or cardiac troponin T (cTNT) (32) mini-gene was used, as their alternative splicing is not regulated by Sam68. […] Thus, the effect of 1a on pre-mRNA splicing appears to be specific to the splicing of pre-mRNAs regulated by Sam68.

[9] = tested on: cTNT alternative splicing; experiment: cTNT mini-gene control splicing in COS7 cells; assay type: cell-based; conditions: for effect on cTNT splicing: no concentration stated, not regulated by Sam68
From the text: as §4

[10] = tested on: r(CGG)^exp nuclear foci; experiment: Nuclear foci by fluorescence in situ hybridization (FISH) in COS7 cells; assay type: cell-based; conditions: COS7 cells transfected with r(CGG)60 and GFP
Experimental: FISH experiments were completed as previously described. (8) Briefly, COS7 cells were plated onto glass coverslips and co-transfected with plasmids encoding for r(CGG)60 and GFP. The cells were fixed in 4% paraformaldehyde in PBS (pH 7.4) for 15 min and washed three times with PBS. Then, they were permeabilized with 0.5% Triton X-100 in PBS. Prior to addition of the FISH probe, the cells were pre-hybridized in a 2×SSC buffer containing 40% formamide and 10 mg/mL BSA for 30 min. The coverslips were hybridized for 2 h in 2×SSC buffer supplemented with 40% formamide, 2 mM vanadyl ribonucleoside, 60 μg/mL tRNA, 30 μg/mL BSA, and 0.75 μg (CCG)8-Cy3 DNA oligonucleotide probe. The cells were washed twice in 2×SSC containing 50% formamide and then twice in 2×SSC. Following FISH the coverslips were incubated for 10 min in 2×SSC containing 1 μg/mL DAPI and rinsed twice in 2×SSC. The coverslips were then mounted in Pro-Long media and examined using either a simple fluorescence microscope (Leica) or a Leica DM4000 B confocal microscope.

[11] = disruption of r(CGG)12-DGCR8Δ complex, Table 1, read-out: IC50
[12] = read-out: IC50 for disruption of r(CGG)12-DGCR8Δ complex / inhibition of protein binding
[13] = 62 times of competitor tRNA, Table 2, read-out: IC50 at the presence of 62 times of competitor, tRNA
[14] = inhibition of r(CGG)12-DGCR8Δ complex, Table 2, read-out: IC50
[15] = cells that do not express r(CGG)60
[16] = 500 μM, splicing not regulated by Sam68

| Percentage displacement at 25 μM ([1]; Table 1) [%] | IC50 [1, 11] [µM] | Structure (SMILES) | Kd [2] [µM] | inhibition of the r(CGG)12-DGCR8Δ interaction, in words [1] | IC50 [1, 12] [µM] | r(CGG)12-DGCR8Δ complex formation, % ([1]; 1 μM compound, Table 2) [%] | r(CGG)12-DGCR8Δ complex formation, % ([1]; 10 μM compound, Table 2) [%] | IC50 [1, 13] [µM] | IC50 [1, 14] [µM] | SMN2 pre-mRNA splicing defects, in words ([6]; COS7 cells expressing r(CGG)60) | effect on PLEKHH2 splicing [8] | effect on cTNT splicing [9] | further results |
| --- | --- | --- | --- | --- | --- | --- | --- | --- | --- | --- | --- | --- | --- |
| 87 ± 5 | 7 ± 0.2 | Cc1c2cc[n+](C)cc2c(C)c2c1[nH]c1ccc(O)cc12 [1d, elliptinium] | 0.05 ± 0.018 | – | – | – | – | – | – | – | – | – | – |
| 46 ± 5 | ~25 | Cc1c2ccncc2c(C)c2c1[nH]c1ccc(O)cc12 [1e, 9-hydroxyellipticine] | – | markedly decreased | ~25 | – | – | – | – | – | – | – | – |
| – | – | Cc1c2cc[n+](Cc3cn(CCCNCC(=O)N(C)C(C)C(=O)N(C)C(C)C(=O)N(C)C(C)C(=O)N(C)C(C)C(=O)N(C)C(C)C(=O)N(CCCn4cc(C[n+]5ccc6c(C)c7[nH]c8ccc(O)cc8c7c(C)c6c5)nn4)CC(N)=O)nn3)cc2c(C)c2c1[nH]c1ccc(O)cc12 (stereo not shown) [2E-5NMe] | – | the most potent compound | – | 39.6 ± 0.6 | 5.0 ± 2.6 | 3.52 | 0.47 ± 0.08 | reduction of pro-mRNA splicing defects | does not affect | does not affect | potency relative to the monomer 1a ([1]; IC50 ratio): ~8 fold; r(CGG)12-DGCR8D complex inhibited ([1]; at 1 mM (so in the source)): 60%; r(CGG)12-DGCR8D complex inhibited ([1]; at 10 mM (so in the source)): 95%; concentration that restores alternative pre-mRNA splicing patterns back to the wild type ([6]; SMN2, COS7 cells with r(CGG)60, 24 h): 50 mM; effect on alternative splicing in healthy cells ([6]; cells without r(CGG)60): does not affect |

| Structure (SMILES) | Percentage displacement at 25 μM ([1]; Table 1) [%] | IC50 [1, 11] [µM] | Kd [2] [µM] | inhibition of the r(CGG)12-DGCR8Δ interaction, in words [1] | IC50 [1, 12] [µM] | r(CGG)12-DGCR8Δ complex formation, % ([1]; 1 μM compound, Table 2) [%] | r(CGG)12-DGCR8Δ complex formation, % ([1]; 10 μM compound, Table 2) [%] | IC50 [1, 13] [µM] | IC50 [1, 14] [µM] | SMN2 pre-mRNA splicing defects, in words ([6]; COS7 cells expressing r(CGG)60) | effect on PLEKHH2 splicing [8] | effect on cTNT splicing [9] | further results |
| --- | --- | --- | --- | --- | --- | --- | --- | --- | --- | --- | --- | --- | --- |
| Cc1c2cc[n+](CCN3CCCCC3)cc2c(C)c2c1[nH]c1ccc(O)cc12 [1a, 9-hydroxy-5,11-dimethyl-2-(2-(piperidin-1-yl)ethyl)-6H-pyrido[4,3-b]carbazol-2-ium] | 85 ± 1 | 13 ± 0.4 | 0.076 ± 0.004 | – | 12 | 66.9 ± 0.7 | 20.4 ± 0.8 | 20.1 | 3.84 ± 0.3 | improves SMN2 pre-mRNA splicing defects | not to effect splicing; also recorded: non-effect | not to effect splicing; also recorded: non-effect | binding to DGCR8Δ [3]: very little binding; amount of ligand partitioned into fully paired RNAs relative to r(CGG)12 [4]: less than half; binding to r(CGG)12 [5]: binds tightly; SMN2 pre-mRNA splicing level ([6]; 100 μM, COS7 cells expressing r(CGG)60): approximately 70 % of wild type; SMN2 pre-mRNA splicing ([6]; 500 μM, COS7 cells expressing r(CGG)60): restores pre-mRNA splicing to levels wild type; concentration at which improvement of SMN2 splicing defects can be observed ([6]; COS7 cells expressing r(CGG)60): 20 µM; concentration required for the same effect relative to 2E-5NMe ([6]; SMN2 splicing restored to wild type): 10 times; effect on SMN2 splicing [6, 15]: No statistically significant effect; Bcl-x splicing ([7]; 100 μM): Statistically significant improvement; Bcl-x splicing ([7]; 500 μM): restoration of wild type splicing patterns; Bcl-x pre-mRNA splicing defects, in words ([7]; COS7 cells expressing 60 r(CGG) repeats): improves Bcl-x pre-mRNA splicing defects; effect on Bcl-x splicing [7, 15]: No statistically significant effect; effect on PLEKHH2 alternative splicing [8, 16]: did not affect; effect on cTNT alternative splicing [9, 16]: did not affect; size and number of r(CGG)^exp nuclear foci / aggregates [10]: reduces the size and the number of foci; also recorded: reduced formation of r(CGG)^exp aggregation; also recorded: decreases r(CGG)^exp-protein aggregates |
